Laboratory results published in ChEMBL document CHEMBL4184160, “Recent Progress of Small-Molecule Epidermal Growth Factor Receptor (EGFR) Inhibitors against C797S Resistance in Non-Small-Cell Lung Cancer” (J Med Chem, 2018).

tested on: Epidermal growth factor receptor (Homo sapiens), P00533 [UNDEFINED MUTATION]; settings: not given
Sequence (P00533 whole entry, looked up, change not shown): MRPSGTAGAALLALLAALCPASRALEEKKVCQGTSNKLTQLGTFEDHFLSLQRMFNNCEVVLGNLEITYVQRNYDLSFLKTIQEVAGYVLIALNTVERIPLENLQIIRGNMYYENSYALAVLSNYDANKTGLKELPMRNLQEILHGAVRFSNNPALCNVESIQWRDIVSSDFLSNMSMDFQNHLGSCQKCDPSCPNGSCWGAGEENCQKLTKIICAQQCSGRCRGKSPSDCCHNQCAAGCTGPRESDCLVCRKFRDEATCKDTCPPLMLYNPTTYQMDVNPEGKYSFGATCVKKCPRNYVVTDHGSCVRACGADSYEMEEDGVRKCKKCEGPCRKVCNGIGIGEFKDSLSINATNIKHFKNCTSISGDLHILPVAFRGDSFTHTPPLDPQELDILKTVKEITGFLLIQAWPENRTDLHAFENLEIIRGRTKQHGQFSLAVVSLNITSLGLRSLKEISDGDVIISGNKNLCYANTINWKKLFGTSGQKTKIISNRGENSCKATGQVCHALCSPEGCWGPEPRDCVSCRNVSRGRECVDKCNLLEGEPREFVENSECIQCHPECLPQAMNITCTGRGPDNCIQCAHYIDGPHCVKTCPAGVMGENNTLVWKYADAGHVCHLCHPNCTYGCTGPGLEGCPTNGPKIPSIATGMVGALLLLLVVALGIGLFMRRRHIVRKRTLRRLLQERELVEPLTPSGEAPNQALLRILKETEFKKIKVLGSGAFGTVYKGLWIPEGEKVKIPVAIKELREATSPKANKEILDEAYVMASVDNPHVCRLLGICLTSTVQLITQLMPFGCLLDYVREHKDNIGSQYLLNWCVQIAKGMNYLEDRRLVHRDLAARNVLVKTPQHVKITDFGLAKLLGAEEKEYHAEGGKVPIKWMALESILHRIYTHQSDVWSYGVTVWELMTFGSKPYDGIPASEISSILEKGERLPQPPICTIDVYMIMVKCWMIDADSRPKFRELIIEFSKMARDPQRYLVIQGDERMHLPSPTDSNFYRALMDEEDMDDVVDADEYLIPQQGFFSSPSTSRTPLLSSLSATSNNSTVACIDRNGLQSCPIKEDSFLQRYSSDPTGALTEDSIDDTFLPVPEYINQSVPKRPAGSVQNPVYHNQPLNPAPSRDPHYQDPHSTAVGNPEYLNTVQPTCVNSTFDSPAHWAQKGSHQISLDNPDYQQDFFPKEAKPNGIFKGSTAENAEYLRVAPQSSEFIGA

First: COc1cc(N2CCC(N)CC2)ccc1Nc1ncc(Cl)c(-c2c[nH]c3ccccc23)n1
Second: COc1cc(N2CCC(N(C)C)CC2)ccc1Nc1ncc(Cl)c(Nc2ccccc2P(C)(C)=O)n1
The GI50 of the first is 2.2-fold higher: 132 nM for the first, 59.1 nM for the second.

Going from COc1cc(N2CCC(N3CCN(C)CC3)CC2)ccc1Nc1ncnc(Nc2ccccc2S(=O)(=O)C(C)C)n1 to Cc1cc(Nc2ncc(Cl)c(Nc3ccccc3S(=O)(=O)C(C)C)n2)c(OC(C)C)cc1C1CCNCC1, the GI50 falls from 1510 nM to 780 nM (1.9-fold).

species on record: Homo sapiens; experiment: Selectivity ratio of IC50 for wild type recombinant N-terminal GST-tagged human EGFR catalytic domain to IC50 for recombinant human EGFR d746-750/T790M/C797S mutant; settings: not given

COC(=O)c1ccc(O)c(-c2nc(NCc3cccnc3)c3ccccc3n2)c1 and N#Cc1ccc(O)c(-c2nc(NCc3cccnc3)c3ccccc3n2)c1 cannot be ordered by Ratio IC50: > 1000 for the first, > 1000 for the second.

Compared with N#Cc1ccc(O)c(-c2nc(NCc3cnccn3)c3ccccc3n2)c1, Oc1ccccc1-c1nc(NCc2cccnc2)c2ccccc2n1 is lower in Ratio IC50: > 1000 for the first, 163 for the second.

molecular target: Epidermal growth factor receptor (Homo sapiens, UniProt P00533, C797S/T790M); experiment: Inhibition of N-terminal GST-fused human EGFR cytoplasmic domain T790M/C797S mutant expressed in baculovirus expression system using TK-substrate after 20 mins by HTRF KinEASE-TK assay; settings: not given

C=CC(=O)N1CCC[C@@H](n2nc(-c3cn(C)c4ccccc34)c3c(N)ncnc32)C1 and C=CC(=O)N1CCC[C@@H](n2nc(-c3cccc4ccccc34)c3c(N)ncnc32)C1 are within 1.5-fold of each other in IC50: 2.5 nM for the first, 1.9 nM for the second.

C=CC(=O)N1CCC[C@@H](n2nc(-c3ccc4ccccc4c3)c3c(N)ncnc32)C1 was tested, and the IC50 was < 1 nM.

molecular target: Epidermal growth factor receptor (Homo sapiens, UniProt P00533, C797S/L858R/T790M); experiment: Inhibition of recombinant human EGFR L858R/T790M/C797S mutant using TK-substrate after 10 mins by HTRF KinEASE-TK assay; settings: not given
Sequence (P00533 25-1210 T790M/C797S/L858R limits assumed): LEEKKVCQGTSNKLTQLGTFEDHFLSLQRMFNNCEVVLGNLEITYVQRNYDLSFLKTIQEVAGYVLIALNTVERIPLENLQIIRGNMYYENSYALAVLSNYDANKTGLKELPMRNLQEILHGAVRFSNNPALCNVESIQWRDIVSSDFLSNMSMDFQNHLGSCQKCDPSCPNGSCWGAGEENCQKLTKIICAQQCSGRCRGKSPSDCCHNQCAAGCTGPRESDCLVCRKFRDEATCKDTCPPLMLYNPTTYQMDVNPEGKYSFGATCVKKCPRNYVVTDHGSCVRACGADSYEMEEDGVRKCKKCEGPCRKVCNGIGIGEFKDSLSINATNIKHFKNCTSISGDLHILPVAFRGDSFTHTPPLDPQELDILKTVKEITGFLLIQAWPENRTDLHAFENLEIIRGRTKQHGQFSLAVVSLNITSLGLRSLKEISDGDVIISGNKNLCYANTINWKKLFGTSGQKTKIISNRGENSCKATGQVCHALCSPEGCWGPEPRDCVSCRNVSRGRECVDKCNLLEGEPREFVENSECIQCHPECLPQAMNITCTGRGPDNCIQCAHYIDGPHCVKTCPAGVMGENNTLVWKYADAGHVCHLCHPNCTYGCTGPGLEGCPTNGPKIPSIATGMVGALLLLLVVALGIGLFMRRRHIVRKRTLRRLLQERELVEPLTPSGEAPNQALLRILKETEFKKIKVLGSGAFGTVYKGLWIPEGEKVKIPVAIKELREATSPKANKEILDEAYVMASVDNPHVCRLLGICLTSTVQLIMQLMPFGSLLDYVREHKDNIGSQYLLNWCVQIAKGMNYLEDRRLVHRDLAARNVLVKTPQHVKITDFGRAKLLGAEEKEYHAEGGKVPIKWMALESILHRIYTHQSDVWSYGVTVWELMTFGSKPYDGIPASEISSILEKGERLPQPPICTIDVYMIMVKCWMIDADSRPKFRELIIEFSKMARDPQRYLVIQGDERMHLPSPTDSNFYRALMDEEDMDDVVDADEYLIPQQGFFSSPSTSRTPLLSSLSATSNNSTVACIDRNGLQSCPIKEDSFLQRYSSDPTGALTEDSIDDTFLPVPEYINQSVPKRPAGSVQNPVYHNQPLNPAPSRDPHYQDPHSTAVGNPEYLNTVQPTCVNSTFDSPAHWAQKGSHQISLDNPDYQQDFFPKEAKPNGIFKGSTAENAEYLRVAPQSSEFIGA

Compared with C=CC(=O)N1CCC[C@@H](n2nc(-c3cn(C)c4ccccc34)c3c(N)ncnc32)C1, C=CC(=O)N1CCC[C@@H](n2nc(-c3cccc4ccccc34)c3c(N)ncnc32)C1 is 9.4-fold higher in IC50: 838 nM for the first, 7900 nM for the second.

With C=CC(=O)N1CCC[C@@H](n2nc(-c3ccc4ccccc4c3)c3c(N)ncnc32)C1 the IC50 was 88 nM.

molecular target: Epidermal growth factor receptor (Homo sapiens, UniProt P00533); experiment: Inhibition of wild type recombinant N-terminal GST-tagged human EGFR catalytic domain expressed in Sf9 insect cells using poly-Glu-Tyr (4:1) as substrate after 2 hrs in presence of [gamma-33P]-ATP by filter-binding method; settings: not given
Sequence (P00533 whole entry, the tested form may be a part): as the sequence (P00533 whole entry, looked up, change not shown) above

COC(=O)c1ccc(O)c(-c2nc(NCc3cccnc3)c3ccccc3n2)c1 and N#Cc1ccc(O)c(-c2nc(NCc3cccnc3)c3ccccc3n2)c1 cannot be ordered by IC50: > 50000 nM for the first, > 50000 nM for the second.

Going from N#Cc1ccc(O)c(-c2nc(NCc3cnccn3)c3ccccc3n2)c1 to Oc1ccccc1-c1nc(NCc2cccnc2)c2ccccc2n1, the IC50 falls from > 50000 nM to 24300 nM. The second is the more potent here.

molecular target: Epidermal growth factor receptor (Homo sapiens, UniProt P00533, 746-750DEL/C797S/T790M); experiment: Inhibition of recombinant human EGFR d746-750/T790M/C797S mutant using poly-Glu-Tyr (4:1) as substrate after 2 hrs in presence of [gamma-33P]-ATP by filter-binding method; settings: not given
Sequence (P00533 whole entry, looked up, stated change not applied): as the sequence (P00533 whole entry, looked up, change not shown) above

Compared with COC(=O)c1ccc(O)c(-c2nc(NCc3cccnc3)c3ccccc3n2)c1, N#Cc1ccc(O)c(-c2nc(NCc3cccnc3)c3ccccc3n2)c1 is 2-fold lower in IC50: 46 nM for the first, 23 nM for the second.

Compared with N#Cc1ccc(O)c(-c2nc(NCc3cnccn3)c3ccccc3n2)c1, Oc1ccccc1-c1nc(NCc2cccnc2)c2ccccc2n1 is 8.8-fold higher in IC50: 17 nM for the first, 149 nM for the second.

species on record: Homo sapiens; experiment: Selectivity ratio of IC50 for human EGFR T790M mutant to IC50 for human wild type EGFR; settings: not given

Compound C=CC(=O)Nc1cccc(Oc2nc(Nc3ccc(N4CCN(C)CC4)cc3OC)ncc2Cl)c1 has a Ratio IC50 of 30 to 100.

tested on: NCI-H1975; experiment: Growth inhibition of human NCI-H1975 cells after 96 hrs by CellTiter-Glo assay; type: functional; settings: NCI-H1975, 96 h

First: C=CC(=O)N1CCC[C@@H](n2nc(-c3cn(C)c4ccccc34)c3c(N)ncnc32)C1
Second: C=CC(=O)N1CCC[C@@H](n2nc(-c3cccc4ccccc34)c3c(N)ncnc32)C1
The GI50 of the first is 2.3-fold lower: 210 nM for the first, 490 nM for the second.

Compound C=CC(=O)N1CCC[C@@H](n2nc(-c3ccc4ccccc4c3)c3c(N)ncnc32)C1 has a GI50 of 140 nM.
